Series [1] addresses T1, 5-HT2a (Homo sapiens, UniProt P28223).
T1 construct: purchased Euroscreen/BioSignal Packard Inc
As to the kind of experiment: Radioligand binding, 5-HT2a ([3H]Ketanserin). As to conditions: Table 4; [3H]Ketanserin 1 nM; read-out: Binding affinity, IC50 (nM) 5-HT2a.

Series [2] deals with T2, 5-HT2c (Homo sapiens, UniProt P28335).
T2 construct: purchased Euroscreen/BioSignal Packard Inc
T2 sequence (P28335 33-458): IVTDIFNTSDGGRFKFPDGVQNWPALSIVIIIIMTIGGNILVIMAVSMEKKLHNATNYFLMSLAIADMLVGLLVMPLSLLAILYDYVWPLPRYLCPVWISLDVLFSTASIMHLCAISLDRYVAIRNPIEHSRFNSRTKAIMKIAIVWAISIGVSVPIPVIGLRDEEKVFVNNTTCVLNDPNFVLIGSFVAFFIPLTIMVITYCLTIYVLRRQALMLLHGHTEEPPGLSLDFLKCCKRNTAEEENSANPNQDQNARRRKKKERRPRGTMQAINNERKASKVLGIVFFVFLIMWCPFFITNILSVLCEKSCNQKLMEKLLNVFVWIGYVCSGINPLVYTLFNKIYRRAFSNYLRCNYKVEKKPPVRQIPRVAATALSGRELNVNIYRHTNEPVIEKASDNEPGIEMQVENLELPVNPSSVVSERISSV
The series is described as follows: Radioligand binding, 5-HT2c ([3H]Mesulergine). To be noted: Table 4; [3H]Mesulergine 1 nM; read-out: Binding affinity, IC50 (nM) 5-HT2c.

For series [3], the target named is D1 (Homo sapiens, UniProt P21728). The series is described as follows: Radioligand binding, dopamine D1. To be noted: Table 4; read-out: Binding affinity, IC50 (nM) D1.
Series [4] is described as follows: Rotarod deficit in mice. Type of series: in vivo, mouse. To be noted: mouse, in vivo, po, unit printed as image, read-out: TD50 (median neurotoxic dose). In a few lines: (§1)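 Compounds suspended in 3% Tween 80 were given p.o. to mice 60 min before testing. Rotarod deficit (%) was the proportion of animals falling within 1 min from a 1 inch knurled rod turning at 6 rpm, scored at 60, 90 and 120 min after dosing.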
In general terms: The rotarod test checks motor coordination on a turning rod.

The subject of series [5] is mice. As to the kind of experiment: Rotarod deficit in mice. It counts as in vivo, mouse. In a few lines:
as §1

Series [6] concerns HeLa cells transfected with the human 5-HT6 receptor. As to the kind of experiment: Cytotoxicity in HeLa cells transfected with the human 5-HT6 receptor. It counts as cell-based. As to conditions: at the concentrations tested.

Bounds are passed on as bounds.

T1 sequence (P28223 whole entry): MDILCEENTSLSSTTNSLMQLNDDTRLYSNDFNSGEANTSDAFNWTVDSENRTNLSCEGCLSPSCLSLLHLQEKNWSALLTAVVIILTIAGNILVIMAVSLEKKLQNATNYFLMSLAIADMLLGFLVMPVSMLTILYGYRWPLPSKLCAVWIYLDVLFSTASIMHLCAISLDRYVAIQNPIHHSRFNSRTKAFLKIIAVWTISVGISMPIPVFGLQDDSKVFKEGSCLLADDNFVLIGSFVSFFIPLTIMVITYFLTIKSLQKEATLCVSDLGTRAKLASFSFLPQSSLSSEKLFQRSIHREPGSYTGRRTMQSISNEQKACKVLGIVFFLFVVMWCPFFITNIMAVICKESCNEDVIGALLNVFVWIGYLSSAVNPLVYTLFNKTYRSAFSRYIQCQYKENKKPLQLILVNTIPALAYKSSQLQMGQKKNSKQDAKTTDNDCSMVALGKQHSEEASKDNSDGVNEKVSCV
Chain of D1 (P21728 whole entry): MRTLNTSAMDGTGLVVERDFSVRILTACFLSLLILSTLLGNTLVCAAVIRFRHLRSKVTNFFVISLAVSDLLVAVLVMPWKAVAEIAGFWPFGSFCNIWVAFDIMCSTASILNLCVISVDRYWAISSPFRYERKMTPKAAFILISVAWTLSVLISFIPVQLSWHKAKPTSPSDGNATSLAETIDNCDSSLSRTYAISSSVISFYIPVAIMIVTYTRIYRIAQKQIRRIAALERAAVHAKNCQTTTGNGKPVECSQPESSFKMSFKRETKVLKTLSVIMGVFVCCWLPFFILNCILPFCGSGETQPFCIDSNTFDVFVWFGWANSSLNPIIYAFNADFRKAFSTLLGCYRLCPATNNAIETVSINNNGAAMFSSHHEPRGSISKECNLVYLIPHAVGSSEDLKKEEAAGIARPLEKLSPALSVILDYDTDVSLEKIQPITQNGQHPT

What is called IC50 is the midpoint of a concentration-inhibition curve. As usually defined, the TD50 is the 50% point of the dose-response relation for the toxic effect studied. Take `COc1ccc(C2(C)C(=O)c3c(N4CCNCC4)cc(Cl)cc3N(Cc3ccccc3)C2=O)cc1` (racemic) [Example 13, 1-Benzyl-7-chloro-3-(4-methoxy-phenyl)-3-methyl-5-piperazin-1-yl-1H-quinoline-2,4-dione]: the half-maximal inhibitory concentration (IC50) in series [1] is 543 nM; in series [2], 437 nM; in series [3], 3590 nM. In addition, the TD50 at 120 min in series [4] was above 400 mg/kg. Moreover, the “Rotarod deficit (%)” value in series [5] (200 p.o. (dose unit not given)), in series [5] (300 p.o. (dose unit not given)) and in series [5] (400 p.o. (dose unit not given)) was 0% in each case.

Consider `CC1(c2ccc(O)cc2)C(=O)c2c(N3CCNCC3)cc(Cl)cc2N(Cc2ccccc2)C1=O` (racemic) [Example 14, 1-Benzyl-7-chloro-3-(4-hydroxy-phenyl)-3-methyl-5-piperazin-1-yl-1H-quinoline-2,4-dione], for which the IC50 in series [1] is 2140 nM; in series [2] it was above 10000 nM; in series [3], 6820 nM. The cytotoxicity entry in series [6] was “did not show any cytotoxicity”. For the same compound, the TD50 at 120 min in series [4] was above 400 mg/kg. In addition, the “Rotarod deficit (%)” value in series [5] (200 p.o. (dose unit not given)), in series [5] (300 p.o. (dose unit not given)) and in series [5] (400 p.o. (dose unit not given)) was 0% each time.
